Paper PMC6458850, “CXXC5 mediates growth plate senescence and is a target for enhancement of longitudinal bone growth” (Life Science Alliance, 2019)

Tested on: ATDC5 cells
Assay: Chondrocyte proliferation, differentiation and Wnt/β-catenin signaling in ATDC5 cells
Assay type: cell-based, mouse
Description: Figure S7. The effects of KY19382 on chondrocyte proliferation and differentiation. (A) ATDC5 cells treated with 0.01 or 0.1 μM concentrations of KY19382 were incubated for 48 h followed by treatment with 50 μM BrdU for 12 h before harvesting. BrdU incorporation was visualized by immunofluorescent staining using a specific BrdU antibody (left). BrdU-positive cells were quantified (mean ± SEM, n = 3; ANOVA, P = 7.8 × 10^−5; Tukey’s post-hoc test, *P < 0.05 and ***P < 0.0005) (right). Scale bar, 100 μm. (B) qRT-PCR analyses of mRNA levels of chondrogenic differentiation markers in ATDC5 cells incubated with 0.1 μM KY19382 for 3 d in three-dimensional alginate beads after transfection with control siRNA or Ctnnb1 siRNA (mean ± SEM, n = 3; t test, *P < 0.05, **P < 0.005, and ***P < 0.0005). (C) qRT-PCR analyses of mRNA levels of chondrogenic differentiation markers in C28/I2 cells incubated with 1 μM KY19382 for 3 d in three-dimensional alginate beads (mean ± SEM, n = 3; t test, *P < 0.05 and ***P < 0.0005). n.s., no significance.
Figure S8. qRT-PCR analyses for target-specificity of KY19382. qRT-PCR analyses of mRNA levels of pathway-specific target genes in ATDC5 cells treated with 0.01 or 0.1 μM concentrations of KY19382 for 4 h (mean ± SEM, n = 3; ANOVA and Tukey’s post-hoc test, *P < 0.05 and **P < 0.005 versus DMSO-treated control). n.s., no significance versus DMSO-treated control.
The mouse chondrogenic cell line, ATDC5, was obtained from the RIKEN Cell Bank. The human juvenile costal chondrocyte cell line, C28/I2, was provided by Dr. W U Kim (Catholic University, Korea). HEK293-TOP cells (HEK293 cells containing the chromosomally incorporated TOPFlash gene) were provided by Dr. S Oh (Kuk Min University, Korea). ATDC5 cells were maintained in DMEM/F12 (1:1) (Gibco) supplemented with 5% FBS (Gibco). To induce hypertrophic differentiation, ATDC5 cells were incubated with insulin–transferrin–sodium selenite supplement (Gibco) in three-dimensional alginate beads for 3 d, as described previously ([Kawasaki et al, 2008]). C28/I2 and HEK293-TOP cells were maintained in DMEM (Gibco) containing 10% FBS. All chemicals were dissolved in dimethyl sulfoxide (DMSO; Sigma-Aldrich) for the in vitro studies. For E2 (17β-estradiol; Sigma-Aldrich) treatment, the cells were cultured in phenol red–free DMEM/F12 with 5% charcoal-stripped FBS for 24 h followed by serum-free medium for 24 h before the experiment. The PTD-DBMP was synthesized by Peptide 2.0 Inc.
ATDC5 or C28/I2 cells were seeded on glass coverslip in 12-well culture plates. The cells were washed with PBS and fixed with 4% PFA at room temperature for 15 min. After permeabilization with 0.1% Triton X-100 for 15 min and blocking with 5% BSA for 1 h, the cells were incubated with primary antibodies specific for β-catenin (1:100) or CXXC5 (1:200) at 4°C overnight. The cells were washed in PBS and incubated with Alexa Fluor 488 or Alexa Fluor 555 secondary antibodies (1:200) at room temperature for 1 h. Cell nuclei were counterstained with DAPI for 10 min and the stained samples were examined under an LSM700 META microscope using 405-, 488-, or 543-nm excitation wavelengths. For BrdU assay, the cultured cells were incubated with BrdU solution (25 μM) overnight, followed by immunocytochemical staining with antibody against BrdU (1:100).
Immunoprecipitation was performed as previously described ([Kim et al, 2015]). To monitor the protein–protein interactions, 1 mg of WCLs were incubated with anti-DVL1 and protein G agarose beads (GenDEPOT) or anti-Myc and protein A agarose beads (GenDEPOT) at 4°C for 16 h, and the beads were then washed three times in RIPA buffer. The resulting immune complexes were resolved by SDS–PAGE, and immunoblotting was performed with the indicated antibodies.
Total RNA was extracted using Trizol reagent (Invitrogen) according to the manufacturer’s instructions. […]

[1] = ATDC5 cells, 0.01 or 0.1 μM, 4 h

SMILES: CON=C1C(=C2C(=O)Nc3cc(Cl)c(Cl)cc32)Nc2ccccc21 [KY19382, 5,6-dichloroindirubin-3′-methoxime]
- BrdU-positive ATDC5 cells (0.01 or 0.1 μM, 48 h): enhanced number
- CXXC5–DVL interaction (immunoprecipitation) (ATDC5 cells transfected with FLAG-DVL1 and CXXC5-Myc, 0.1 μM, 4 h): interruption
- nuclear translocation of β-catenin (ATDC5 cells, 0.1 μM, 48 h): elevated nuclear translocation
- mRNA levels of chondrogenic markers (ATDC5 cells, 0.1 μM, 3 d, alginate beads): up-regulated
- expression levels of Wnt/β-catenin target genes (Wisp1, Axin2) [1]: markedly increased
- expression of 19 other genes that respond to other pathways (off-target effects) [1]: not significantly altered
- concentration sufficient to promote activation of Wnt/β-catenin pathway in vitro (Fig 4E and Fig S8): 0.01 µM
